Settings: Liquid, Twin ebulliometer

O=C1C=CCCC1 [2-cyclohexen-1-one]
Settings	vapor or sublimation pressure [kPa]
350.4 K	4.147
353.66 K	4.786
357.56 K	5.662
361.48 K	6.709
366.16 K	8.095
370.32 K	9.581
374.97 K	11.46
379 K	13.31
380.5 K	14.06
386.63 K	17.53
388.4 K	18.68
391.77 K	20.95
397.16 K	25.2
404.53 K	32.03
407.95 K	35.56
410.86 K	39.01
424.23 K	57.64
445 K	100.4

CC1CCCCC1=O (stereo unspecified) [2-methylcyclohexanone]
Settings	vapor or sublimation pressure [kPa]
338.76 K	3.333
342.2 K	3.912
348.85 K	5.267
350.96 K	5.763
353.34 K	6.401
355.93 K	7.129
358.53 K	7.941
360.73 K	8.678
363.09 K	9.543
366.66 K	10.98
369.65 K	12.3
372.7 K	13.79
376.36 K	15.79
381.72 K	19.12
384.91 K	21.37
389.42 K	24.9
394.59 K	29.53
398.32 K	33.29
399.98 K	35.05
408.17 K	45.03
411.64 K	49.98
414 K	53.52
418.28 K	60.46
436.94 K	99.71

CCCCCC=O [hexanal]
Settings	vapor or sublimation pressure [kPa]
322.27 K	5.184
325.43 K	6.001
327.84 K	6.711
330.22 K	7.51
333.56 K	8.713
338.89 K	10.99
342.12 K	12.59
347.22 K	15.55
353.44 K	19.8
360.11 K	25.45
366.28 K	31.91
371.95 K	38.88
377.98 K	47.56
402.17 K	99.72

Reference: the NIST ThermoML archive (doi:10.1021/je0504358)
